Assay results from the Kinase Knowledgebase extract (Sharma et al. 2016).
pEC50, pIC50: −log10 of the molar value.

Tests used:
[1] = molecular target: MAPK14 (human) (UniProt Q16539); conditions: Monocyte
[2] = molecular target: MAPK14 (UniProt Q16539); assay: P38-alpha Kinase Inhibition
[3] = test system: MAPK14 (Balb/c mice); assay: TNF-alpha Inhibition (Balb/c Mice)

Chain of MAPK14 (human) (Q16539 whole entry, looked up): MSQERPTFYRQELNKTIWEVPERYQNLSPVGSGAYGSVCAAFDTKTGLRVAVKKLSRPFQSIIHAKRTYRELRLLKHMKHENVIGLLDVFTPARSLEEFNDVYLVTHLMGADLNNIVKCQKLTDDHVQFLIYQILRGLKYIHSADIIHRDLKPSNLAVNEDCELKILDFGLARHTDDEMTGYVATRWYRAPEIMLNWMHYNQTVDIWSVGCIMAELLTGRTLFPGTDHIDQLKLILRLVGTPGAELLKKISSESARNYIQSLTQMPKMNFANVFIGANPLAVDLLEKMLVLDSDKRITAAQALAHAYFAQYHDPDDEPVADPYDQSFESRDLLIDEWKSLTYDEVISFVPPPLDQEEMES
Chain of MAPK14 (Q16539 whole entry, looked up): as above

| SMILES | pEC50 [1] | pIC50 [2] | ED50 [3] |
| --- | --- | --- | --- |
| OC[C@H]1CO[C@@H](c2nc(-c3ccncc3)c(-c3ccc(F)cc3)[nH]2)OC1 | 6.70 | – | – |
| C[C@]1(N)CO[C@@H](c2nc(-c3ccncc3)c(-c3ccc(F)cc3)[nH]2)OC1 | 7.26 | – | – |
| Fc1ccc(-c2[nH]c([C@H]3OC[C@H](Cc4ccccc4)CO3)nc2-c2ccncc2)cc1 | 6.72 | – | – |
| C[C@]1(N)CO[C@H](c2nc(-c3ccncc3)c(-c3ccc(F)cc3)[nH]2)OC1 | 6.74 | – | – |
| C[C@]1(CNC(=O)c2ccccc2)CO[C@H](c2nc(-c3ccncc3)c(-c3ccc(F)cc3)[nH]2)OC1 | 7.08 | – | – |
| C[C@]1(CN)CO[C@@H](c2nc(-c3ccncc3)c(-c3ccc(F)cc3)[nH]2)OC1 | 7.48 | – | – |
| C[C@]1(C(=O)N2CCOCC2)CO[C@H](c2nc(-c3ccncc3)c(-c3ccc(F)cc3)[nH]2)OC1 | 6.96 | 7.30 | 6 mg/kg |
| C=C1COC(c2nc(-c3ccncc3)c(-c3ccc(F)cc3)[nH]2)OC1 | 6.93 | – | – |
| C[C@]1(CN)CO[C@H](c2nc(-c3ccncc3)c(-c3ccc(F)cc3)[nH]2)OC1 | 7.42 | – | – |
| CC(C)C1O[C@H](c2nc(-c3ccncc3)c(-c3ccc(F)cc3)[nH]2)OCC1(C)C (stereo partly specified) | 6.94 | – | – |
| C[C@]1(NC(=O)c2ccccc2)CO[C@H](c2nc(-c3ccncc3)c(-c3ccc(F)cc3)[nH]2)OC1 | 6.96 | 7.36 | 11 mg/kg |
| Fc1ccc(-c2[nH]c([C@H]3OC[C@@H](Cc4ccccc4)CO3)nc2-c2ccncc2)cc1 | 6.84 | – | – |
